The assay concerns LpxC enzyme. Put plainly: LpxC enzyme assay (RapidFire high-throughput mass spectrometry). Type of assay: biochemical. Summed up:
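0.2 nM enzyme with 1.0 μM UDP-3-O-(R-3-hydroxymyristoyl)-N-acetylglucosamine in 25 mM HEPES pH 7.3, 150 mM NaCl, 2.0 mM DTT, 0.01% BSA, 2% DMSO; 60 min at room temperature, quenched with HCl. Substrate and product quantified by RapidFire mass spectrometry; percent conversion gives percent inhibition versus DMSO control.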

The mark [1] stands for this setting: concentration 0.10 (unit not given).
The mark [2] stands for this setting: concentration 0.20 (unit not given).
Setting [3] is: concentration 0.39 (unit not given).
[4] abbreviates: concentration 0.78 (unit not given).
Setting [5] is: concentration 1.56 (unit not given).
Where [6] appears, read: concentration 3.13 (unit not given).
The mark [7] stands for this setting: concentration 6.25 (unit not given).
The mark [8] stands for this setting: concentration 12.50 (unit not given).
[9] abbreviates: concentration 25 (unit not given).
The mark [10] stands for this setting: concentration 50 (unit not given).

The structures appear in SMILES notation.

Take `CNC(=O)[C@H](O)[C@@H](O)C(=O)N1CCN(c2ccc(-c3ncccn3)cc2)CC1` [Compound 37]: the “LpxC enzyme assay rating (% inhibition at indicated concentrations)” value runs as follows: under setting [1], “C (less than 10% inhibition)”; under setting [2], “C (less than 10% inhibition)”; under setting [3], “C (less than 10% inhibition)”; under setting [4], “C (less than 10% inhibition)”; under setting [5], “C (less than 10% inhibition)”; under setting [6], “C (less than 10% inhibition)”. Moreover, the “LpxC enzyme assay rating (% inhibition at indicated concentrations)” value under setting [7] was “B (10-30% inhibition)”, the “LpxC enzyme assay rating (% inhibition at indicated concentrations)” value under setting [8] is on record as “C (less than 10% inhibition)”, the “LpxC enzyme assay rating (% inhibition at indicated concentrations)” value under setting [9] was “B (10-30% inhibition)” and the “LpxC enzyme assay rating (% inhibition at indicated concentrations)” value under setting [10] was “C (less than 10% inhibition)”.

Regarding `CN(C)C(=O)[C@H](O)[C@@H](O)C(=O)N1CCC(c2ccc(C(F)(F)F)cc2)CC1` [Compound 51], the “LpxC enzyme assay rating (% inhibition at indicated concentrations)” value reads like this: under setting [1], “B (10-30% inhibition)”; under setting [2], “C (less than 10% inhibition)”; under setting [3], “C (less than 10% inhibition)”; under setting [4], “C (less than 10% inhibition)”; under setting [5], “B (10-30% inhibition)”; under setting [6], “C (less than 10% inhibition)”. In addition, the “LpxC enzyme assay rating (% inhibition at indicated concentrations)” value reads like this: under setting [7], “C (less than 10% inhibition)”; under setting [8], “C (less than 10% inhibition)”; under setting [9], “B (10-30% inhibition)”; under setting [10], “B (10-30% inhibition)”.

Take `CN(C)CCOc1ccc(NC(=O)[C@H](O)[C@@H](O)C(=O)N2CCCC2)cc1` [Compound 73]: the “LpxC enzyme assay rating (% inhibition at indicated concentrations)” value is given as “C (less than 10% inhibition)” under setting [1]; “B (10-30% inhibition)” under setting [2]; “C (less than 10% inhibition)” under setting [3]; “B (10-30% inhibition)” under setting [4]; “C (less than 10% inhibition)” under setting [5]; “C (less than 10% inhibition)” under setting [6]. Moreover, the “LpxC enzyme assay rating (% inhibition at indicated concentrations)” value is “C (less than 10% inhibition)” under setting [7], “C (less than 10% inhibition)” under setting [8], “C (less than 10% inhibition)” under setting [9] and “C (less than 10% inhibition)” under setting [10].

On to `CNC(=O)[C@H](O)[C@@H](O)C(=O)N1CCN(c2cccc3ccccc23)CC1` [Compound 29], for which the “LpxC enzyme assay rating (% inhibition at indicated concentrations)” value runs as follows: under setting [1], “C (less than 10% inhibition)”; under setting [2], “C (less than 10% inhibition)”; under setting [3], “C (less than 10% inhibition)”; under setting [4], “C (less than 10% inhibition)”; under setting [5], “B (10-30% inhibition)”; under setting [6], “B (10-30% inhibition)”. Further, the “LpxC enzyme assay rating (% inhibition at indicated concentrations)” value reads like this: under setting [7], “B (10-30% inhibition)”; under setting [8], “B (10-30% inhibition)”; under setting [9], “B (10-30% inhibition)”; under setting [10], “B (10-30% inhibition)”.

Regarding `CN(C)C(=O)[C@H](O)[C@@H](O)C(=O)Nc1ccc(-c2ccc3ccccc3c2)cc1` [Compound 82], the “LpxC enzyme assay rating (% inhibition at indicated concentrations)” value reads like this: under setting [1], “C (less than 10% inhibition)”; under setting [2], “B (10-30% inhibition)”; under setting [3], “C (less than 10% inhibition)”; under setting [4], “C (less than 10% inhibition)”; under setting [5], “C (less than 10% inhibition)”; under setting [6], “B (10-30% inhibition)”. Besides, the “LpxC enzyme assay rating (% inhibition at indicated concentrations)” value runs as follows: under setting [7], “B (10-30% inhibition)”; under setting [8], “A (greater than 30% inhibition)”; under setting [9], “A (greater than 30% inhibition)”.

With `CCCc1ccc(NC(=O)[C@H](O)[C@@H](O)C(=O)N(C)C)cc1` [Compound 49], the “LpxC enzyme assay rating (% inhibition at indicated concentrations)” value by setting is: under setting [1], “C (less than 10% inhibition)”; under setting [2], “C (less than 10% inhibition)”; under setting [3], “B (10-30% inhibition)”; under setting [4], “C (less than 10% inhibition)”; under setting [5], “C (less than 10% inhibition)”; under setting [6], “C (less than 10% inhibition)”. Also, the “LpxC enzyme assay rating (% inhibition at indicated concentrations)” value is, setting by setting: under setting [7], “C (less than 10% inhibition)”; under setting [8], “C (less than 10% inhibition)”; under setting [9], “B (10-30% inhibition)”; under setting [10], “C (less than 10% inhibition)”.

In the case of `CN(C)C(=O)[C@H](O)[C@@H](O)C(=O)Nc1ccc(C#Cc2ccccc2)cc1` [Compound 43], the “LpxC enzyme assay rating (% inhibition at indicated concentrations)” value under setting [1] was “C (less than 10% inhibition)”; the “LpxC enzyme assay rating (% inhibition at indicated concentrations)” value under setting [2] was “B (10-30% inhibition)”; the “LpxC enzyme assay rating (% inhibition at indicated concentrations)” value under setting [3] is “C (less than 10% inhibition)”; the “LpxC enzyme assay rating (% inhibition at indicated concentrations)” value under setting [4] is “C (less than 10% inhibition)”; the “LpxC enzyme assay rating (% inhibition at indicated concentrations)” value under setting [5] is reported as “B (10-30% inhibition)”; the “LpxC enzyme assay rating (% inhibition at indicated concentrations)” value under setting [6] is “B (10-30% inhibition)”. The “LpxC enzyme assay rating (% inhibition at indicated concentrations)” value under setting [7] is given as “B (10-30% inhibition)”, the “LpxC enzyme assay rating (% inhibition at indicated concentrations)” value under setting [8] is listed as “A (greater than 30% inhibition)”, the “LpxC enzyme assay rating (% inhibition at indicated concentrations)” value under setting [9] is “A (greater than 30% inhibition)” and the “LpxC enzyme assay rating (% inhibition at indicated concentrations)” value under setting [10] is recorded as “A (greater than 30% inhibition)”.

The values are drawn from patent publication US7553864B2, “Compounds for the treatment of inflammatory disorders and microbial diseases” (Schering Corporation, priority 2005, dated 2009).
